In patent US7553667B2, “Regulation of gene expression using chromatin remodelling factors” (Her Majesty the Queen in right of Canada as represented by …, priority 2002, dated 2009):

Tests used:
BnSCL1 gene expression = assay: Quantitative one-step RT-PCR of BnSCL1 expression in treated seedlings; type: in vivo, Brassica napus
Method: In exogenous applied auxin treatments, four-leaf stage seedlings grown at 20° C. were treated with a foliar spray containing 1 mM 2,4-D and 50 mM sodium phosphate, pH 7.5. The four leaves were collected at 30 min, 60 min and 180 min after the first foliar application of 2,4-D. For the measurement of response of shoots and roots to auxin, sterilized seeds were germinated on plates in a growth chamber with continuous light at 20° C., and 10 dpg seedlings were supplied with varied concentration of 2,4-D. In the auxin transport inhibition experiments, 9 dpg seedlings were incubated in the medium supplemented with 50 μM NPA dissolved in 0.1% DMSO for 24 h before the 2,4-D treatment. For the HDAC inhibitor treatments, 10 mM sodium butyrate was added onto the growth medium and incubated for 24 h followed by exogenous 2,4-D application at varied concentrations.
Total RNA extracted as described above was treated with Amplification Grade Deoxyribonuclease I (GibcoL BRL) following the manufacture's instructions. The RNA samples were then directly used for reverse transcription prior to amplification without purification. The RT-PCR was quantitatively performed and completed in a one-step reaction using […] One-Step RT-PCR System (GibcoL BRL) as described by Gao et al. (2002). Gene-specific sense and anti-sense primers used to generate a 960 bp fragment of Brassica napus Actin, as an internal standard, were as described in Gao et al., (2002). Gene-specific primers for the generation of BnSCL1, BnIAA1 and BnIAA12 fragments were as follows: […]

bnKCP1 expression = assay: Northern blot of bnKCP1 expression in leaves of treated seedlings; type: in vivo, Brassica napus; conditions: for bnKCP1 transcript in leaves after treatment: four-leaf stage seedlings, room temperature, 10 μM inomycin or 20 mM LaCl3
Method: Brassica napus L. cv Cascade (winter type), Westar (spring type) and DES010 (spring type) were used for the isolation of genomic DNA and total RNA. Leaves, flowers, stems, siliques and immature seeds were harvested from plants cultured in a controlled-environment greenhouse programmed for a photoperiod of 16 h day and 8 h night. Roots were obtained by culturing sterilized seeds in 0.8% agar plates containing ½ MS medium and 1% sucrose. For cold acclimation (4° C.), abscisic acid (250 μM), drought and high salt (850 mM NaCl) treatments, four-leaf stage seedlings were treated and fourth fully expanded leaf blades were harvested as described by Gao et al. (2002). LaCl3 and inomycin treatments were carried out by watering four-leaf stage plants with 20 mM LaCl3 and 10 μM inomycin, respectively. Plants were covered with SARAN Wrap to slow evaporation.
Total RNA was isolated from the tissues of B. napus L. cv DES010. These included leaves and stems of four-leaf stage seedlings, flowers, immature siliques of adult plants, and roots of cultured seedlings as described by Gao et al. (2001). Probe labelling, hybridization, washing and membrane stripping were performed as described above in the Southern blot analysis Section.

GST-HDA19 = biological target: T1, GST-HDA19 (Arabidopsis thaliana, UniProt O22446); assay: GST pulldown affinity assay of bnKCP1 and mutants with GST-HDA19; type: binding; conditions: [35S]Met-labeled in vitro translated protein
T1 construct: made in house; host or cells: E. coli BL21-CodonPlus (DE3)-RP
T1 sequence (O22446 1-501): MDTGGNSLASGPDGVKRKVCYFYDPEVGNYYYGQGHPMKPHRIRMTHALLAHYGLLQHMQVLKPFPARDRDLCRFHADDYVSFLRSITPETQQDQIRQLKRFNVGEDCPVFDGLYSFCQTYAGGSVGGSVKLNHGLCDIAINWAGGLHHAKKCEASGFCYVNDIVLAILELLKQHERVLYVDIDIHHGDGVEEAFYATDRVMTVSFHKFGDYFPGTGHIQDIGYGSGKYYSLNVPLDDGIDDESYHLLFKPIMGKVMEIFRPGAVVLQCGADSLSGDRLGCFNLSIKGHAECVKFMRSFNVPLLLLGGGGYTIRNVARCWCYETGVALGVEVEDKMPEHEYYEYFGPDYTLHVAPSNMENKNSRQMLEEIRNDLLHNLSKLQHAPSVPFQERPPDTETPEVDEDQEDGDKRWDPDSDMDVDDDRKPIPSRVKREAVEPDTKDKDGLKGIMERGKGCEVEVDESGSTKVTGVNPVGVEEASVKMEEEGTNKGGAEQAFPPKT
Excerpt: (§1) The full coding regions of the Arabidopsis HAT, Gcn5 (Dr. M. Thomashow, Michigan State University, MI), and HDA19 (Accession # AF195547) were PCR amplified, sequence analyzed and inserted in-frame with the GST (glutathione s-transferase) into the SalI and NotI sites of vector pGEX-6P-2 (Amersham Pharmacia). The forward used for the amplification of Gcn5 was:
(§2) Recombinant pGEX-6P-2 plasmids were used to transform E. coli BL21-CodonPlus (DE3)-RP competent cells (Stratagene). Expression and purification under non-denaturing conditions were carried out as described by Gao et al. (Gao, M.-J. et al., 2002). The GST-Gcn5 and GST-HDA19 fusion proteins were analyzed by 7.5% SDS-PAGE (SDS-polyacrylamide gel electrophoresis) and western blotting with rabbit anti-GST-Pi polyclonal antibody (Chemicon) using ECL Western blotting analysis system (Amersham Pharmacia).
(§3) Full-length bnKCP1 and truncated mutant bnKCP1^1-160 and bnKCP1^1-80 proteins labeled with [^35S]methionine were produced using TNT-Quick Coupled Transcription/Translation System (Promega) according to the manufacture's instructions, with some modifications. A total of 1 μl of RNase inhibitor (GibcoL BRL) and 1 μl of protease inhibitors set (Roche) were added to the lysate reaction. After incubation for 90 min at 30° C., RNase A was added to the reaction to a final concentration of 0.2 mg/ml and incubated for 5 min at the same temperature.
In vitro protein interaction was detected with GST pulldown affinity assays as described by Ahmad et al. (1999) with some modifications. Briefly, 6 μg of GST or 4 μg of GST-fusion protein was incubated with 5 μl of [^35S]Met-labeled translation mixture in 200 μl of bead-binding buffer (50 mM K-phosphate, pH 7.6, 450 mM KCl, 10 mM MgCl2, 10% glycerol, 1% Triton X-100, 1% BSA and 1 μl of diluted 1:12 protease inhibitors set) for 1 h at room temperature. After incubation, 20 μl of 50% slurry of glutathione-Sepharose beads containing 10 mg/ml of BSA and 4 μg of EtBr was mixed with the reaction mixture followed by gentle rotation for 1 h at 4° C. After washing six times with 1.2 ml of bead-binding buffer without BSA and EtBr but containing 12 μl of protease inhibitors set (Roche), the bound proteins were eluted with 30 μl of 2×SDS loading buffer, boiled for 2 min and analyzed by 12% SDS-PAGE. After electrophoresis, the gels were dried, treated with Amplify (Amersham Pharmacia) and subjected to fluorography.

GST-Gcn5 = biological target: T2, GST-Gcn5 (Arabidopsis thaliana, UniProt Q9AR19); assay: GST pulldown affinity assay of bnKCP1 and mutants with GST-Gcn5; type: binding; conditions: [35S]Met-labeled in vitro translated protein
T2 construct: made in house; host or cells: E. coli BL21-CodonPlus (DE3)-RP
T2 sequence (Q9AR19 1-568): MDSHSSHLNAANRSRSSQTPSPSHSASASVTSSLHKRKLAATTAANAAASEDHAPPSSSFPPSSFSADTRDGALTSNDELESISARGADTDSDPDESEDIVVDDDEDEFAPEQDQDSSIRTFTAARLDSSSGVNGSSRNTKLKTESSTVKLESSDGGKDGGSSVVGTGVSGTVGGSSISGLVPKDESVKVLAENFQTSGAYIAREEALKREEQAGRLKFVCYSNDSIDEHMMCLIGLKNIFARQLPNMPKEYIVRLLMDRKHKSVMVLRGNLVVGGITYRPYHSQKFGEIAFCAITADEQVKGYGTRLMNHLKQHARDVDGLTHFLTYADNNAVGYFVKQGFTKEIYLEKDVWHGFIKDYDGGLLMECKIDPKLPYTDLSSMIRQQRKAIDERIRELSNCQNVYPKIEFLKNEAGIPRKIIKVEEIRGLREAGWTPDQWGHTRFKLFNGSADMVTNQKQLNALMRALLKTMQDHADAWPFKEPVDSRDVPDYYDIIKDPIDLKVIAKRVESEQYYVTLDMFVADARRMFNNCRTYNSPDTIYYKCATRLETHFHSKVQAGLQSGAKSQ
Excerpt: as §1, §2, §3
In vitro protein interaction was detected with GST pulldown affinity assays as described by Ahmad et al. (1999) with some modifications. […] After washing six times with 1.2 ml of bead-binding buffer without BSA and EtBr but containing 12 μl of protease inhibitors set (Roche), the bound proteins were eluted with 30 μl of 2×SDS loading buffer, boiled for 2 min and analyzed by 12% SDS-PAGE. […]

[1] = tested on: lacZ reporter gene driven by promoter containing GAL4 DNA binding sites; assay: Transactivation assay of bnKCP1 using yeast one-hybrid system; type: cell-based, yeast MaV203; conditions: transactivation in yeast
Excerpt: Effector plasmids pDBLeu-bnKCP1^1-160, pDBLeu-bnKCP1^1-80, pDBLeu-bnKCP1^81-215 and pDBLeu-bnKCP1 were constructed by ligating the PCR-amplified fragments ΔbnKCP1^1-160, ΔbnKCP1^1-80, ΔbnKCP1^81-215 and the coding region of bnKCP1 into the SalI/NotI sites of pDBLeu vector (GibcoL BRL) in-frame with the GAL4 DB sequence. The oligonucleotide primers for PCR amplification were as follows: […]
The three reporter genes, lacZ, HIS3 and URA3, which were chromosomally integrated in the genome of MaV203 yeast cells were driven by unrelated promoters containing GAL4 DNA binding sites (GibcoL BRL). For transient assays, the effector constructs or the negative control vector pDBLeu were transferred to the MaV203 yeast cells. The β-galactosidase activity was measured using CPRG (chlorophenol red-β-D-galactopyranoside) according to the manufacturer's instructions (GibcoL BRL). The MaV203 cells containing plasmids pDBLeu-HDA19 and pPC86-bnKCP1 were used as the positive control. In addition, we used three yeast control strains A, B, and C (GibcoL BRL), which were developed to contain plasmid pairs expressing fusion proteins with none, weak and moderately strong protein-protein interaction strength, respectively. Transient Expression of the GUS-bnCKP1 Fusion Protein

## O=C(O)c1ccccc1C(=O)Nc1cccc2ccccc12 [NPA, naphthylphthalamic acid]
BnSCL1 gene expression; 50 μM for 24 h before 2,4-D at different concentrations
  BnSCL1 mRNA accumulation profiles in response to auxin in shoots and roots: not changed

## O=C(O)COc1ccc(Cl)cc1Cl [2,4-D]
BnSCL1 gene expression; 10 dpg seedlings, 100 μM required to produce an effect
  BnSCL1 expression in roots: upregulated
BnSCL1 gene expression; 10 dpg seedlings, even at the lowest level (1 pM)
  expression of BnSCL1 in shoots: rapidly downregulated
BnSCL1 gene expression; four-leaf stage seedlings, leaves, within 30 min of 1 mM foliar application, vs untreated plants
  increase of BnSCL1 mRNA accumulation: approximately 50%

## inomycin
bnKCP1 expression
  bnKCP1 transcript in leaves after treatment: rapid (2 hrs) but short-lived

## [Cl][La]([Cl])[Cl] [LaCl3]
bnKCP1 expression
  bnKCP1 transcript in leaves after treatment: undetectable

## CC1=CC(=O)CC(C)(C)[C@@]1(O)/C=C/C(C)=C\C(=O)O [ABA, abscisic acid]
bnKCP1 expression; exogenous application for up to 8 hours, data not shown
  bnKCP1 expression in leaf blades after treatment: not detected

B1: ΔbnKCP1^1-80: C-terminal truncated mutant of bnKCP1, residues 1-80, lacking the KID domain (protein)
chain: MAGGGPTFSIELSAYGSDLPTDKASGDIPNEEGSGLSRVGSGIWSGRTVDYSSESSSSIGTPGDSEEEDEESEEDNDEEE
GST-HDA19
  in vitro binding to GST-HDA19: no interaction
GST-Gcn5
  in vitro binding to GST-Gcn5: no interaction
[1]
  influence of deletion of KID or GKSKS domains on β-galactosidase activity: no significant influence

B2: bnKCPG^188: bnKCP1 with S188 mutated to G188 by site-directed mutagenesis (protein)
chain: MAGGGPTFSIELSAYGSDLPTDKASGDIPNEEGSGLSRVGSGIWSGRTVDYSSESSSSIGTPGDSEEEDEESEEDNDEEELGLASLRSLEDSLPSKGLSSHYKGKSKSFGNLGEIGSVKEVPKQENPLNKKRRLQIYNKLARKSFYSWQNPKSMPLLPVHEDNDDEEGDDGDLSDEERGGDVLARRPGFKNRALKSMSCFALSDLQEEEEEEEDE
GST-HDA19
  in vitro binding to GST-HDA19: significantly reduced binding

B3: ΔbnKCP1^1-160: C-terminal truncated mutant of bnKCP1, residues 1-160, lacking the KID domain (protein)
chain: MAGGGPTFSIELSAYGSDLPTDKASGDIPNEEGSGLSRVGSGIWSGRTVDYSSESSSSIGTPGDSEEEDEESEEDNDEEELGLASLRSLEDSLPSKGLSSHYKGKSKSFGNLGEIGSVKEVPKQENPLNKKRRLQIYNKLARKSFYSWQNPKSMPLLPVH
GST-HDA19
  in vitro binding to GST-HDA19: no interaction
GST-Gcn5
  in vitro binding to GST-Gcn5: no interaction
[1]
  influence of deletion of KID or GKSKS domains on β-galactosidase activity: no significant influence
